# Structures can show the parent of a compound that is named as a salt.
# Target: T1, 5-HT4 receptor (Cavia porcellus, UniProt O70528)
# T1 construct: striatum was isolated which was cryopreserved at −80° C. until use; from tissue; host or cells: guinea pig (Slc-Hartley) striatum membranes
# Assay: Test Example 3: Guinea pig 5-HT4 receptor binding assay, [3H]-GR113808, striatum membranes (Table 98)
# Settings: Guinea pig 5-HT4 receptor binding assay, [3H]-GR113808, striatum membranes; mean value of each group; read-out: IC50
# Method: The guinea pig 5-HT4 receptor binding assay and preparations of receptor membrane preparations herein were carried out according to a method of Grossman et al. [see, British J. Pharmacol., (1993) 109, 618].
# Slc-Hartley guinea pigs (body weight 300 g to 400 g) were decapitated to remove brain rapidly, and striatum was isolated which was cryopreserved at −80° C. until use. To the obtained tissues were added fifteen fold of Hepes buffer (50 mM, pH 7.4, 4° C.), and the mixture was homogenized by Teflon (trademark) homogenizer and centrifuged at 48,000×g (4° C.) for 15 minutes. To the resulting precipitate was added Hepes buffer (1 ml) to 30 mg by wet weight of tissues, and the mixture was suspended to give receptor membrane preparations.
# To an assay tube were added 0.1 nM [^3H]-GR113808 {chemical name: [1-[2-(methylsulfonylamino) ethyl]-4-piperidinyl]methyl 1-methylindole-3-carboxylate}, receptor membrane preparations, and Hepes buffer (50 mM, pH 7.4, 4° C., 1 ml) containing test compounds or 30 μM serotonin; and the mixture was incubated at 37° C. for 30 minutes. On quenching the reaction, the mixture was rapidly filtered on whatman GF/B filter, which was presoaked in 0.1% polyethyleneimine for 1 hour, by using Brandel cell Harvester, and washed with ice-cooled 50 mM Tris-HCl (pH 7.7, 4 ml) three times. To the filter after filtration was added a liquid scintillator (Ecoscint), and then a radioactivity was determined by a liquid scintillation counter.
# 50% Inhibition concentrations (IC50) were determined from inhibition rates of test compounds to specific bindings which were obtained by subtracting nonspecific bindings from total binding amounts of [^3H]-GR113808. […]
# T1 sequence (O70528 whole entry): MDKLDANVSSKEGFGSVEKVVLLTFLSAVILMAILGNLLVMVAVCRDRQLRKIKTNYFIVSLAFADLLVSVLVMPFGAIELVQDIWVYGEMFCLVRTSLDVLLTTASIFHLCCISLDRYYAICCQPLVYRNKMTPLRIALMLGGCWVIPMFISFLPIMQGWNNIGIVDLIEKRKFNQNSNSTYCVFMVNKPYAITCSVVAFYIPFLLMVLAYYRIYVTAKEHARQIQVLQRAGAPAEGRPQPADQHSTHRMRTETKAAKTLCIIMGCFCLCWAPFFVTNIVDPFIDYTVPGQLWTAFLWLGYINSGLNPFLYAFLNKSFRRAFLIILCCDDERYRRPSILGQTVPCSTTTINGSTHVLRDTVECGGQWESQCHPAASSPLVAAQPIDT
row,SMILES,IC50 [nM]
1,"CC(=O)N1CC(CN2CCC(c3nc(-n4nc(C(C)C)c5ccc(C)cc54)no3)CC2)C1 [Example 471, 1-{3-[(4-{3-[6-methyl-3-(propan-2-yl)-1H-indazol-1-yl]-1,2,4-oxadiazol-5-yl}piperidin-1-yl)methyl]azetidin-1-yl}ethanone trifluoroacetate]",173
2,"CC(=O)N1CCC(CN2CCC(c3nc(-n4nc(C(C)C)c5ccc(C)cc54)no3)CC2)CC1 [Example 479, 1-{4-[(4-{3-[6-methyl-3-(propan-2-yl)-1H-indazol-1-yl]-1,2,4-oxadiazol-5-yl}piperidin-1-yl)methyl]piperidin-1-yl}ethanone trifluoroacetate]",94.6
3,"CC(C)c1nn(-c2noc(C3CCN(CC4CN(C(=O)N(C)C)CCO4)CC3)n2)c2c(F)cccc12 (centres unmarked) [Example 485, 2-[(4-{3-[7-fluoro-3-(propan-2-yl)-1H-indazol-1-yl]-1,2,4-oxadiazol-5-yl}piperidin-1-yl)methyl]-N,N-dimethylmorpholine-4-carboxamide]",21.2
4,"CC(C)c1nn(-c2noc(C3CCN(C4CCN(C(=O)CO)CC4)CC3)n2)c2c(F)c(O)ccc12 [Example 552, 1-(4-{3-[7-fluoro-6-hydroxy-3-(propan-2-yl)-1H-indazol-1-yl]-1,2,4-oxadiazol-5-yl}-1,4′-bipiperidin-1′-yl)-2-hydroxyethanone]",179
5,"CC(=O)N1CCC(N2CCC(c3nc(-n4nc(C(C)(C)O)c5cccc(F)c54)no3)CC2)CC1 [Example 403, 1-(4-{3-[7-fluoro-3-(2-hydroxypropan-2-yl)-1H-indazol-1-yl]-1,2,4-oxadiazol-5-yl}-1,4′-bipiperidin-1′-yl)ethanone]",36.1
6,"CC(=O)N1CCC(N2CC[C@H](Cc3nc(-n4nc(C(C)C)c5cccc(F)c54)no3)C2)CC1 [Example 495, 1-{4-[(3R)-3-({3-[7-fluoro-3-(propan-2-yl)-1H-indazol-1-yl]-1,2,4-oxadiazol-5-yl}methyl)pyrrolidin-1-yl]piperidin-1-yl}ethanone]",< 20
7,"CC(C)c1nn(-c2noc(C3CCN(CCCOc4ccccc4)CC3)n2)c2c(F)cccc12 [Example 395, 7-fluoro-1-{5-[1-(3-phenoxypropyl)piperidin-4-yl]-1,2,4-oxadiazol-3-yl}-3-(propan-2-yl)-1H-indazole]",26.9
8,"Cc1ccc2c(C(C)C)nn(-c3noc(C4CCN(C5CCC5)CC4)n3)c2c1 [Example 433, 1-[5-(1-cyclobutylpiperidin-4-yl)-1,2,4-oxadiazol-3-yl]-6-methyl-3-(propan-2-yl)-1H-indazole]",65
9,"CC(C)c1nn(-c2noc(C3CCN(CC4CCOCC4)CC3)n2)c2c(F)c(F)ccc12 [Example 453, 6,7-difluoro-3-(propan-2-yl)-1-{5-[1-(tetrahydro-2H-pyran-4-ylmethyl)piperidin-4-yl]-1,2,4-oxadiazol-3-yl}-1H-indazole trifluoroacetate]",28.1
10,"CC(=O)N1CCOC(CN2CCC(c3nc(-n4nc(C(C)C)c5cccc(F)c54)no3)CC2)C1 (centres unmarked) [Example 483, 1-{2-[(4-{3-[7-fluoro-3-(propan-2-yl)-1H-indazol-1-yl]-1,2,4-oxadiazol-5-yl}piperidin-1-yl)methyl]morpholin-4-yl}ethanone]",35.7
11,"COc1ccc2c(C(C)C)nn(-c3noc(C4CCN(C5CCN(C(C)=O)CC5)CC4)n3)c2c1F [Example 404, 1-(4-{3-[7-fluoro-6-methoxy-3-(propan-2-yl)-1H-indazol-1-yl]-1,2,4-oxadiazol-5-yl}-1,4′-bipiperidin-1′-yl)ethanone]",100
12,"CC(=O)N1CCC(N2CCC(c3nc(-n4nc(C(C)C)c5ccc(C)cc54)no3)CC2)CC1 [Example 462, 1-(4-{3-[6-methyl-3-(propan-2-yl)-1H-indazol-1-yl]-1,2,4-oxadiazol-5-yl}-1,4′-bipiperidin-1′-yl}ethanone trifluoroacetate]",109
13,"CC(=O)N1CCC(N2CCC(c3nc(-n4nc(C(C)C)c5c(C)cccc54)no3)CC2)CC1 [Example 408, 1-(4-{3-[4-methyl-3-(propan-2-yl)-1H-indazol-1-yl]-1,2,4-oxadiazol-5-yl}-1,4′-bipiperidin-1′-yl)ethanone]",29.5
14,"COC(=O)N1CCOC(CN2CCC(c3nc(-n4nc(C(C)C)c5cccc(F)c54)no3)CC2)C1 (centres unmarked) [Example 484, methyl 2-[(4-{3-[7-fluoro-3-(propan-2-yl)-1H-indazol-1-yl]-1,2,4-oxadiazol-5-yl}piperidin-1-yl)methyl]morpholine-4-carboxylate]",28.1
15,"CCc1nn(-c2noc(C3CCN(C4CCC4)CC3)n2)c2c(F)c(F)ccc12 [Example 446, 1-[5-(1-cyclobutylpiperidin-4-yl)-1,.2,4-oxadiazol-3-yl]-3-ethyl-6,7-difluoro-1H-indazole-trifluoroacetate]",< 20
16,"CC(C)c1nn(-c2noc(C3CCN(C4CCN(S(C)(=O)=O)CC4)CC3)n2)c2c(F)cccc12 [Example 466, 4-{3-[7-fluoro-3-(propan-2-yl)-1H-indazol-1-yl]-1,2,4-oxadiazol-5-yl}-1′-(methylsulfonyl)-1,4′-bipiperidine trifluoroacetate]",< 20
17,"CC(C)c1nn(-c2noc(C3CCN(CC4CN(S(C)(=O)=O)CCO4)CC3)n2)c2c(F)cccc12 (centres unmarked) [Example 486, 7-fluoro-1-[5-(1-{[4-(methylsulfonyl)morpholin-2-yl]methyl}piperidin-4-yl)-1,2,4-oxadiazol-3-yl]-3-(propan-2-yl)-1H-indazole]",< 20
18,"Cc1ccc2c(C(C)C)nn(-c3noc(C4CCN(CC5CCOCC5)CC4)n3)c2c1 [Example 436, 6-methyl-3-(propan-2-yl)-1-{5-[1-(tetrahydro-2H-pyran-4-ylmethyl)piperidin-4-yl]-1,2,4-oxadiazol-3-yl}-1H-indazole trifluoroacetate]",179
19,"CC(C)c1nn(-c2noc(C3CCN(C4CCN(C(=O)CO)CC4)CC3)n2)c2c(F)ccc(O)c12 [Example 553, 1-(4-{3-[7-fluoro-4-hydroxy-3-(propan-2-yl)-1,1′-indazol-1-yl]-1,2,4-oxadiazol-5-yl}-1,4′-bipiperidin-1′-yl)-2-hydroxyethanone]",18.7
20,"CC(C)c1nn(-c2noc(C3CCN(CCC(=O)Nc4ccccc4)CC3)n2)c2c(F)cccc12 [Example 398, 3-(4-{3-[7-fluoro-3-(propan-2-yl)-1H-indazol-1-yl]-1,2,4-oxadiazol-5-yl}piperidin-1-yl)-N-phenylpropanamide]",< 20
21,"CC(C)c1nn(-c2noc(C3CCN(CCC(=O)c4ccccc4)CC3)n2)c2c(F)cccc12 [Example 396, 3-(4-{3-[7-fluoro-3-(propan-2-yl)-1H-indazol-1-yl]-1,2,4-oxadiazol-5-yl}piperidin-1-yl)-1-phenylpropan-1-one]",< 20
22,"COc1cccc2c(C(C)C)nn(-c3noc(C4CCN(C5CCN(C(C)=O)CC5)CC4)n3)c12 [Example 414, 1-(4-{3-[7-methoxy-3-(propan-2-yl)-1H-indazol-1-yl]-1,2,4-oxadiazol-5-yl}-1,4′-bipiperidin-1′-yl)ethanone]",86.9
23,"CC(=O)N1CCC(N2CCC(c3nc(-n4nc(C(C)C)c5cc(Cl)ccc54)no3)CC2)CC1 [Example 409, 1-(4-{3-[5-chloro-3-(propan-2-yl)-1H-indazol-1-yl]-1,2,4-oxadiazol-5-yl}-1,4′-bipiperidin-1′-yl)ethanone]",383
24,"CC(C)c1nn(-c2noc(C3CCN(C4CC[S+]([O-])CC4)CC3)n2)c2c(F)cccc12 (centres unmarked) [Example 443, 7-fluoro-1-{5-[1-(1-oxidotetrahydro-2H-thiopyran-4-yl)piperidin-4-yl]-1,2,4-oxadiazol-3-yl}-3-(propan-2-yl)-1H-indazole]",18.1
25,"CCc1nn(-c2noc(C3CCN(C4CCOCC4)CC3)n2)c2cc(C)ccc12 [Example 437, 3-ethyl-6-methyl-1-{5-[1-(tetrahydro-2H-pyran-4-yl)piperidin-4-yl)-1,2,4-oxadiazol-3-yl}-1H-indazole trifluoroacetate]",113
26,"CC(=O)N1CCC(N2CCC(c3nc(-n4nc(C(C)C)c5cc(C)ccc54)no3)CC2)CC1 [Example 410, 1-(4-{3-[5-methyl-3-(propan-2-yl)-1H-indazol-1-yl]-1,2,4-oxadiazol-5-yl}-1,4′-bipiperidin-1′-yl)ethanone]",323

# From patent US20140057895A1, “INDAZOLE- AND PYRROLOPYRIDINE-DERIVATIVE AND PHARMACEUTICAL USE THEREOF” (priority 2011, published 2014)
